For series [1] the following is noted: rhesus monkey, in vivo.
A further series deals with p38 MAPK. Nature of the series: Western blotting of phos-p38 MAPK in senescent cells. The format is cell-based, mouse. As to conditions: 0.5 μM SSK1, after 36 hours of treatment. The protocol:
Senescent NBF cells were plated and incubated overnight at 37° C. The cells were treated with 0.05 μM gemcitabine or 0.5 μM SSK1 prodrug for the indicated time. Before harvest, cells were washed twice with pre-cooled PBS buffer. Total protein was extracted with lysis buffer (50 mM Tris-HCl (pH 7.5), 137 mM sodium chloride, 1 mM EDTA, 1% Nonidet P-40, 10% glycerol, 0.1 mM sodium orthovanadate, 10 mM sodium pyrophosphate, 20 mM β-glycerophosphate, 50 mM sodium fluoride, 1 mM phenylmethylsulfonyl fluoride), and the protein concentrations were normalized using the BCA Protein Assay Kit (Pierce). Protein samples were mixed with protein loading buffer and incubated at 95° C. for 5 min. Western blotting was performed by using the following antibodies: phospho-specific p38 MAPK (Thr180/Tyr182) (Cell Signaling Technology, CST, catalog number 4511) and p38 (CST, catalog number 8690); phospho-histone H2A.X (Ser139) (CST, catalog number 9718) and histone H2A.X (CST, catalog number 7631). The β-tubulin protein level was also determined as the loading control by using the β-tubulin antibody (CST, catalog number 2128).

The test system of series [2] is SA-β-gal-positive senescent cells in bleomycin-injured lungs. As to the kind of experiment: Bleomycin-induced lung injury (lung fibrosis and senescence) mouse model. In kind it is in vivo, mice. Here is the method: All drugs were mixed in 90% PBS, 5% Tween-80 (P1754, Sigma), and 5% polyethylene glycol (PEG) (81172, Sigma) and administered to mice by intraperitoneal (i.p.) injection. For treating bleomycin-injured young mice, SSK1 (0.5 mg/kg) or vehicle were given consecutive two days every week for five weeks. For old mice (20-month-old), SSK1 (0.5 mg/kg), gemcitabine (0.5 mg/kg) or vehicle were administrated for continued 3 days every two weeks. Gemcitabine was purchased from MCE.
Bleomycin was purchased from Selleck. To induce lung senescence and fibrosis, young male and female mice (3-month-old) were subjected to transtracheal injection of bleomycin (1 mg/kg) as previously reported (Bivas-Benita et al., Eur J Pharm Biopharm 61, 214-218(2005))
Cultured cells were washed once with PBS and fixed in β-galactosidase staining fix solution for 15 min at room temperature. Cells were then washed three times with PBS and incubated with β-galactosidase staining solution (Beyotime Biotechnology) for 16-20 hours at 37° C. For 12-well plates, 1 ml of β-galactosidase staining solution was added to each well. The plate was sealed with Parafilm to prevent evaporation of the staining medium. After the overnight incubation, cells were washed with PBS and observed under a bright field microscope. For β-galactosidase staining of frozen sections, the frozen sections were dried at 37° C. for 20-30 min and then fixed in β-galactosidase staining fix solution for 15 min at room temperature. The frozen sections were washed three times with PBS and incubated with β-galactosidase staining solution overnight at 37° C. After completion of β-galactosidase staining, the sections were stained with eosin for 1-2 min, rinsed under running water for 1 min, differentiated in 1% acid alcohol for 10-20 sec, and washed again under running water for 1 min. Sections were dehydrated in increasing concentrations of alcohols and cleared in xylene. Excess xylene was drained and a coverslip was placed over the section. After drying, the sample was observed under a microscope.
Lung, liver, and kidney frozen sections stained with SA-β-Gal were quantified by ImageJ software (NIH) to measure the SA-β-Gal positive area. The total area was quantified by eosin positive area with ImageJ software (NIH). The relative positive SA-β-Gal positive cells were calculated with the SA-β-Gal positive area divided by the total area. Each mouse was measured with 3-5 regions.
For detecting the p21 expression in lungs, we conducted the immunohistochemical staining experiment for p21 with an immunohistochemical staining kit (SP-9000, ZSGB-BIO). Freshly isolated tissues were fixed by 10% formalin for one day and then transferred in 20% formalin for another day. The tissue blocks were then dehydrated and embedded in paraffin. The embedded tissues were cut and affixed on slides. Before immunohistochemical staining, the slides were deparaffinized, rehydrated, and performed antigen retrieve by high pressure and high temperature in Tris/EDTA pH 8.0 buffer solution. Immunohistochemical staining was conducted according to the manufacturers' instructions.
Total RNA was isolated using the Direct-zol RNA MiniPrep Kit (Zymo Research, R2072). […] Data were analyzed using the 2^(−ΔΔCt) method. […]

Series [3] has as its system replication-induced senescent mouse embryonic fibroblasts (MEFs) and their non-senescent counterparts. Nature of the series: SSK1 metabolism analysis (release of gemcitabine, LC-MS/MS). In kind it is in vitro ADME. As to conditions: 0.5 μM SSK1; senescent vs non-senescent MEFs; FIG. 1A. Here is the method: To detect the release of gemcitabine from SSK1 in senescent and non-senescent cells, the metabolism analysis was performed as previous reported (Karampelas et al., Mol Pharmaceut 14, 674-685(2017)). Briefly, the senescent and non-senescent cells were incubated with 0.5 μM SSK1 in DMEM medium containing 10% FBS and 1% penicillin-streptomycin for the indicated time. Then the cells slightly washed with water for twice and then harvested. Cold methanol used to extract the compounds and samples were prepared after centrifugation. The concentration of gemcitabine was determined by LC-MS/MS analysis.

The text below walks through data of US12576155B2, “Senolytic and antiinflammatory prodrugs and methods of use thereof” (priority 2019, dated 2026).

Where two headings read alike, the source gives them in different places.

The compound `CC(=O)OCC1O[C@@H](Oc2ccc(COC(=O)Nc3ccn([C@@H]4O[C@H](CO)C(O)C4(F)F)c(=O)n3)cc2[N+](=O)[O-])C(OC(C)=O)C(OC(C)=O)[C@H]1OC(C)=O` (stereo partly drawn) [SSK1] had a UA in series [1] (0.5 mg/kg) of 9 µmol/L. In addition, in series [1] (2 mg/kg), the UA stood at 10 µmol/L. Besides, the “State of p38 MAPK (phosphorylation)” value in the series with p38 MAPK is recorded as “activated p38 MAPK by phosphorylation”. In series [2] (SSK1 0.5 mg/kg i.p.), the “Decline in physical functions (treadmill exhaustion distance)” value was “attenuated”; the Lung fibrosis entry is “attenuated”; the “p21-positive cells and other senescence-associated markers in lungs (immunohistochemistry, RT-qPCR)” value was “decreased p21-positive cells and other senescence-associated markers”. For the same compound, the “Decrease of SA-β-gal-positive cells in lungs vs vehicle” value in series [2] (SSK1 0.5 mg/kg i.p., five weeks) was found to be 3.8 fold. Further, the “β-gal positive macrophages in injured lungs” value in series [2] (SSK1 0.5 mg/kg, xCell analysis of RNA-seq, FIG. 6C) is on record as “reduction of β-gal positive macrophages was observed”. In addition, the “Metabolism of SSK1 into gemcitabine” value in series [3] is “specifically cleaved to release cytotoxic gemcitabine in senescent cells but not in non-senescent cells”.
